Test results as given in patent US10336732B2, “1-heterocyclyl isochromanyl compounds and analogs for treating CNS disorders” (Sunovion Pharmaceuticals Inc., priority 2015, dated 2019).

System: mice
Test: Neuropharmacological assay (SmartCube), behavioral signature of compound-treated mice
Type: in vivo
Details: i.p. 15 min before behavioral test, most efficacious dose(s) of 3 doses
Summary of the method: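 Read-out is an automated video-based behavioral signature, scored as per-class probabilities (e.g., anxiolytic, antidepressant) against reference compounds. Dosing was i.p. at three doses, 15 min pre-test, in NMP, polyethylene glycol and propylene glycol. Values shown are from the most efficacious dose(s).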

| SMILES | AD: ADHD (probability that behavioral signature matches class) | AG: analgesic (probability that behavioral signature matches class) | AX: anxiolytic (probability that behavioral signature matches class) | CE: cognitive enhancer (probability that behavioral signature matches class) | DP: anti-depressant (probability that behavioral signature matches class) | HA: hallucinogen (probability that behavioral signature matches class) | MS: mood stabilizer (probability that behavioral signature matches class) | PS: anti-psychotic (probability that behavioral signature matches class) | SD: sedative hypnotic (probability that behavioral signature matches class) | UN: uncharacterized CNS activity (probability that behavioral signature matches class) | XG: anxiogenic (probability that behavioral signature matches class) |
| --- | --- | --- | --- | --- | --- | --- | --- | --- | --- | --- | --- |
| c1c2c(cc3c1OCO3)[C@H]([C@@H]1CCCN1)OCC2 [Compound I-54, (S)-2-((R)-7,8-dihydro-5H-[1,3]dioxolo[4,5-g]isochromen-5-yl)pyrrolidine] | + (LOQ ≤ + <5%) | ++ (5% ≤ ++ <25%) | +++ (25% ≤ +++ <50%) | ++ (5% ≤ ++ <25%) | +++ (25% ≤ +++ <50%) | + (LOQ ≤ + <5%) | ++ (5% ≤ ++ <25%) | ++ (5% ≤ ++ <25%) | + (LOQ ≤ + <5%) | + (LOQ ≤ + <5%) | + (LOQ ≤ + <5%) |
| c1cc2c(c3c1CCO[C@H]3[C@@H]1CCCN1)OCO2 [Compound I-52, (S)-2-((R)-7,9-dihydro-6H-[1,3]dioxolo[4,5-h]isochromen-9-yl)pyrrolidine] | + (LOQ ≤ + <5%) | ++ (5% ≤ ++ <25%) | ++++ (50% ≤ ++++) | ++ (5% ≤ ++ <25%) | ++ (5% ≤ ++ <25%) | + (LOQ ≤ + <5%) | + (LOQ ≤ + <5%) | ++ (5% ≤ ++ <25%) | + (LOQ ≤ + <5%) | +++ (25% ≤ +++ <50%) | + (LOQ ≤ + <5%) |
| Fc1ccc2c(c1)CCO[C@@H]2[C@H]1CCN1 [Compound I-91, (R)-2-((S)-6-fluoroisochroman-1-yl)azetidine] | + (LOQ ≤ + <5%) | ++ (5% ≤ ++ <25%) | ++ (5% ≤ ++ <25%) | ++ (5% ≤ ++ <25%) | ++ (5% ≤ ++ <25%) | + (LOQ ≤ + <5%) | + (LOQ ≤ + <5%) | +++ (25% ≤ +++ <50%) | ++ (5% ≤ ++ <25%) | ++ (5% ≤ ++ <25%) | + (LOQ ≤ + <5%) |
| Cc1cccc2c1[C@@H]([C@H]1CCCN1)OCC2 [Compound I-24, (R)-2-((S)-8-methylisochroman-1-yl)pyrrolidine] | + (LOQ ≤ + <5%) | ++ (5% ≤ ++ <25%) | ++ (5% ≤ ++ <25%) | ++ (5% ≤ ++ <25%) | +++ (25% ≤ +++ <50%) | + (LOQ ≤ + <5%) | ++ (5% ≤ ++ <25%) | ++ (5% ≤ ++ <25%) | ++ (5% ≤ ++ <25%) | + (LOQ ≤ + <5%) | + (LOQ ≤ + <5%) |
| Fc1ccc2c(c1)[C@H]([C@@H]1CCCN1)OCCC2 [Compound I-107, (S)-2-((R)-8-fluoro-1,3,4,5-tetrahydrobenzo[c]oxepin-1-yl)pyrrolidine] | + (LOQ ≤ + <5%) | ++ (5% ≤ ++ <25%) | +++ (25% ≤ +++ <50%) | ++ (5% ≤ ++ <25%) | ++ (5% ≤ ++ <25%) | + (LOQ ≤ + <5%) | ++ (5% ≤ ++ <25%) | +++ (25% ≤ +++ <50%) | ++ (5% ≤ ++ <25%) | ++ (5% ≤ ++ <25%) | + (LOQ ≤ + <5%) |
| c1ccc2c(c1)CCO[C@H]2[C@@H]1COCCN1 [Compound I-76, (S)-3-((R)-isochroman-1-yl)morpholine] | + (LOQ ≤ + <5%) | ++ (5% ≤ ++ <25%) | ++ (5% ≤ ++ <25%) | + (LOQ ≤ + <5%) | ++ (5% ≤ ++ <25%) | + (LOQ ≤ + <5%) | + (LOQ ≤ + <5%) | ++ (5% ≤ ++ <25%) | + (LOQ ≤ + <5%) | + (LOQ ≤ + <5%) | + (LOQ ≤ + <5%) |
| Clc1ccc2c(c1)CCO[C@@H]2[C@H]1CCCN1 [Compound I-36, (R)-2-((S)-6-chloroisochroman-1-yl)pyrrolidine] | + (LOQ ≤ + <5%) | ++ (5% ≤ ++ <25%) | ++ (5% ≤ ++ <25%) | ++ (5% ≤ ++ <25%) | ++ (5% ≤ ++ <25%) | + (LOQ ≤ + <5%) | ++ (5% ≤ ++ <25%) | +++ (25% ≤ +++ <50%) | + (LOQ ≤ + <5%) | ++ (5% ≤ ++ <25%) | + (LOQ ≤ + <5%) |
| Fc1cccc2c1CCO[C@H]2[C@@H]1CCCN1 [Compound I-13, (S)-2-((R)-5-fluoroisochroman-1-yl)pyrrolidine] | + (LOQ ≤ + <5%) | ++ (5% ≤ ++ <25%) | ++ (5% ≤ ++ <25%) | ++ (5% ≤ ++ <25%) | +++ (25% ≤ +++ <50%) | + (LOQ ≤ + <5%) | ++ (5% ≤ ++ <25%) | ++++ (50% ≤ ++++) | + (LOQ ≤ + <5%) | ++ (5% ≤ ++ <25%) | + (LOQ ≤ + <5%) |
| Fc1ccc2c(c1)CO[C@@H]2[C@@H]1CCCN1 [Compound I-118, (S)-2-((S)-5-fluoro-1,3-dihydroisobenzofuran-1-yl)pyrrolidine] | + (LOQ ≤ + <5%) | ++ (5% ≤ ++ <25%) | +++ (25% ≤ +++ <50%) | ++ (5% ≤ ++ <25%) | ++ (5% ≤ ++ <25%) | + (LOQ ≤ + <5%) | ++ (5% ≤ ++ <25%) | +++ (25% ≤ +++ <50%) | ++ (5% ≤ ++ <25%) | + (LOQ ≤ + <5%) | + (LOQ ≤ + <5%) |
| Fc1ccc2c(c1)[C@@H](F)CO[C@H]2[C@@H]1CCCN1 [Compound I-138, (S)-2-((1R,4R)-4,6-difluoroisochroman-1-yl)pyrrolidine] | + (LOQ ≤ + <5%) | + (LOQ ≤ + <5%) | ++ (5% ≤ ++ <25%) | + (LOQ ≤ + <5%) | ++ (5% ≤ ++ <25%) | + (LOQ ≤ + <5%) | + (LOQ ≤ + <5%) | +++ (25% ≤ +++ <50%) | + (LOQ ≤ + <5%) | ++ (5% ≤ ++ <25%) | + (LOQ ≤ + <5%) |
| Fc1ccc2c(c1)[C@@H]([C@@H]1CCN1)OCC2 [Compound I-85, (S)-2-((S)-7-fluoroisochroman-1-yl)azetidine] | + (LOQ ≤ + <5%) | + (LOQ ≤ + <5%) | ++ (5% ≤ ++ <25%) | ++ (5% ≤ ++ <25%) | ++ (5% ≤ ++ <25%) | + (LOQ ≤ + <5%) | + (LOQ ≤ + <5%) | +++ (25% ≤ +++ <50%) | ++ (5% ≤ ++ <25%) | ++ (5% ≤ ++ <25%) | + (LOQ ≤ + <5%) |
